Source: patent US9018248B2, “Fatty acid derivatives of catechins and methods of their use” (Genesis Group Inc., priority 2010, dated 2015)
Marks after values point to notes of the source that are not given here.

Key:
HCV NS3/4A protease = HCV NS3/4A protease (Hepatitis C virus genotype 1a, UniProt P27958); test: Inhibition against HCV protease; assay type: biochemical; settings: for IC50: HCV NS3/4A protease 0.5 μg/ml, 30 min, room temperature; for HCV protease inhibitory activity relative to embelin: fold stronger than embelin
Sequence of HCV NS3/4A protease (P27958 1027-1657): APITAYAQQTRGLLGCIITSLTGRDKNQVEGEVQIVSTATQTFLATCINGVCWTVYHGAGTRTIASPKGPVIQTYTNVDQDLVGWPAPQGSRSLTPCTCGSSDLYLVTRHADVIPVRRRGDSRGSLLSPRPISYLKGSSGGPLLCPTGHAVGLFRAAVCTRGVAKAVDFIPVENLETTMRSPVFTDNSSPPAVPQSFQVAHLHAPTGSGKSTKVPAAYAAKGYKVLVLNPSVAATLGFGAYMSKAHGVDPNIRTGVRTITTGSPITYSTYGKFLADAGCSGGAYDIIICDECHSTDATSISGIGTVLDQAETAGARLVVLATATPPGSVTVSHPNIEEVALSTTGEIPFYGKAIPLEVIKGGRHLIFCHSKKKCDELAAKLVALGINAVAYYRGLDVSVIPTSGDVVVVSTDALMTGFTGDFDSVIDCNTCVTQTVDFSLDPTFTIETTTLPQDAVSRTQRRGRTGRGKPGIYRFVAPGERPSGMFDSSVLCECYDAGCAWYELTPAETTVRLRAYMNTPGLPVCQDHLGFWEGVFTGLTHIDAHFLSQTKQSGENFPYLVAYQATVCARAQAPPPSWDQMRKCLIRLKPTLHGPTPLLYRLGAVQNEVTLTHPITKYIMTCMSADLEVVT
Sequence of HCV NS3/4A protease (P27958 1658-1711): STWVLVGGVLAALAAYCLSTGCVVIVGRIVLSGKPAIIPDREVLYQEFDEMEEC
Description: An aliquot (2 μl) of test compounds dissolved in DMSO was added to each well of a 384-well black Assay plate, followed by addition of 8 μl of HCV NS3/4A protease solution (0.5 μg/ml). The reaction was initiated by adding 10 μl of freshly diluted substrate (100× dilution of a DMSO stocking solution). The mixture was incubated at room temperature for 30 min, and the fluorescence intensity was measured at 485 nm for excitation and 535 nm for emission by a TECAN GENios plate reader. […] All fluorescence values were corrected with a substrate blank. Samples were assayed at different concentrations to plot a concentration VS. inhibition percentage curve, and IC50 values were obtained from the curve for each sample. A known HCV protease inhibitor, embelin, was used as a reference. Discussion

Human LDL = test: Inhibition of copper-induced LDL-cholesterol oxidation; settings: CuSO4-induced, 37° C., 22 hours
Description: Human LDL solution was dialyzed overnight in PBS (10 mM, 0.15M NaCl, pH 7.4) at 4° C. under nitrogen blanket prior to the test. Sample solutions were prepared by dissolving the test compounds in ethanol at concentration of 500 μM. Ten microliters of sample solutions were transferred into a set of Eppendorf tubes, and the solvent was evaporated to dryness under a nitrogen stream. To each tube 0.1 ml of PBS was added, followed by vortexing for 1 min. An aliquot (0.8 ml) of the dialyzed and diluted LDL solution (0.125 mg/ml) was added to each tube, and the contents were mixed well and incubated at 37° C. for 15 min. The reaction was initiated by adding 0.1 ml of CuSO4 (20 μM, previously incubated). A blank containing only sample without LDL or CuSO4 was prepared for each test compound. After incubation of the reaction mixture at 37° C. for 22 hours, the conjugated dienes formed as a result of oxidation were measured spectrophotometrically at 234 nm. […] All absorbances for samples were blank-corrected. Discussion

[1] = Inhibition against UV-induced liposome oxidation; settings: UV 254 nm, 45 min
Description: To prepare liposome MLV, 10 mg of egg yolk PC were dissolved in a small amount of chloroform in a round bottom flask and the solvent was removed using a rotary evaporator followed by nitrogen flush. The thin film on the inner surface of the flask was suspended in 10 ml of PBS (10 mM, pH7.4, 150 mM NaCl) by vortex and sonication, and the emulsion was then repeatedly frozen and thawed for 4 times. The liposomal MLV obtained were diluted by 90 ml of PBS, and an aliquot (750 μL) was transferred into an Eppendorf tube containing 10 μL of test compounds dissolved in ethanol and 240 μL of PBS. The content was mixed well and incubated at 37° C. for 15 min. After incubation, the mixture was exposed to UV irradiation (254 nm) for 45 min. The oxidation was detected by measuring conjugated dienes (CD) spectrophotometically at 234 nm against a blank without liposome (test compounds+PBS). Conjugated diene values were calculated as follows using blank-corrected absorbances. CD(mol/g of PC)=Abs./εLC, where ε is the absorptivity constant (29500 M^−1cm^−1), L is the length of the cuvette (1 cm) and C is the final concentration of PC (g/L). […] Discussion

[2] = Oil/water emulsion (β-carotene/linoleate) bleaching; settings: test compounds 1 mM in ethanol, 50° C., 105 min
Description: Ten milligrams of β-carotene were dissolved in 10 ml of chloroform. A 1.2 ml portion of this solution was transferred into a round-bottom flask containing 40 mg of linoleic acid and 400 mg of Tween 40. A blank without β-carotene was also prepared (40 mg of linoleic acid+400 mg of Tween 40). After removal of chloroform under a nitrogen stream, 100 ml of oxygenated distilled water were added to the flask and the mixture was stirred vigorously. Aliquots (4.5 ml) of the above emulsion were transferred into a series of tubes containing 0.5 ml of test compounds (1 mM in ethanol) or ethanol as control. A mixture of blank (without β-carotene) was prepared for each sample. The tubes were vortexed and the zero time absorbance was read immediately at 470 nm. The tubes are kept in a water bath at 50° C. with gentle shaking, and measurement of absorbance was continued over a 105-min period at intervals of 15 min. Blank-corrected absorbance was obtained and plotted against time for kinetic curve of β-carotene bleaching. Antioxidant activity (AA) of test compounds in protecting β-carotene/linoleic acid oxidation was calculated using the following equation. AA %=[1−(A0−At)/(A0^o−At^o)]×100 where, A0 and At are corrected absorbance values for test samples measured at zero time and after incubation, respectively; while A0^o and At^o are corrected absorbance values for control at zero time and after incubation, respectively.

IC50 (HCV NS3/4A protease) [nM]	HCV protease inhibitory activity relative to embelin (HCV NS3/4A protease)	Compound	Inhibition of LDL-cholesterol oxidation (conjugated diene formation) (Human LDL) [%]	% inhibition of UV-induced liposome oxidation (conjugated dienes) [1] [%]	Inhibition of β-carotene bleaching [2]
130	approximately 80 fold	CCCCCCCCCCCCCCCCCC(=O)Oc1cc(C(=O)OC2Cc3c(O)cc(O)cc3OC2c2cc(OC(=O)CCCCCCCCCCCCCCCCC)c(O)c(OC(=O)CCCCCCCCCCCCCCCCC)c2)cc(OC(=O)CCCCCCCCCCCCCCCCC)c1O (stereo not shown) [Compound 1a, EGCG stearate]	16.33	47.59	16.8 ± 4.19^b %
6	1700 fold	CCC=CCC=CCC=CCC=CCC=CCCCC(=O)Oc1cc(C(=O)OC2Cc3c(O)cc(O)cc3OC2c2cc(OC(=O)CCCC=CCC=CCC=CCC=CCC=CCC)c(O)c(OC(=O)CCCC=CCC=CCC=CCC=CCC=CCC)c2)cc(OC(=O)CCCC=CCC=CCC=CCC=CCC=CCC)c1O (stereo not shown) [Compound 1b]	11.80	3.47	28.0 ± 0.17^a %
6	1700 fold	CCC=CCC=CCC=CCC=CCC=CCC=CCCC(=O)Oc1cc(C(=O)OC2Cc3c(O)cc(O)cc3OC2c2cc(OC(=O)CCC=CCC=CCC=CCC=CCC=CCC=CCC)c(O)c(OC(=O)CCC=CCC=CCC=CCC=CCC=CCC=CCC)c2)cc(OC(=O)CCC=CCC=CCC=CCC=CCC=CCC=CCC)c1O (stereo not shown) [Compound 1c]	8.18	16.22	32.1 ± 4.48^a %

Compound	IC50 (HCV NS3/4A protease) [nM]	HCV protease inhibitory activity relative to embelin (HCV NS3/4A protease)	Inhibition of LDL-cholesterol oxidation (conjugated diene formation) (Human LDL) [%]	% inhibition of UV-induced liposome oxidation (conjugated dienes) [1] [%]	Inhibition of β-carotene bleaching [2]
O=C(O[C@@H]1Cc2c(O)cc(O)cc2O[C@@H]1c1cc(O)c(O)c(O)c1)c1cc(O)c(O)c(O)c1 [EGCG, Epigallocatechin gallate, reference compound]	> 200000	–	6.53	9.53	7.90 ± 0.64^c %
